Experimental data: the supplement of paper PMC10307832

Legend:
Test in all cases: relative viability (nuclei count vs DMSO), 5 days (fraction); higher = more cells survive
[1] = compound: CC1=CC=C(C=C1)C(=O)CN2C3=C(CCCC3)SC2=N [Pifithrin_alpha] + Cc1cc(Nc2cc(N3CCN(C)CC3)nc(Sc3ccc(NC(=O)C4CC4)cc3)n2)n[nH]1 [Tozasertib] (partner 0.1 µM)
Procedure, shortened: (§1)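 The day after seeding in 1536-well plates, lung cancer cell lines were treated by pin tool with a single drug, or with a fixed anchor-drug dose together with five library-drug doses (not always all listed) in √10 steps. After 5 days, a combined fix-and-stain solution (final 0.05% Triton X-100, 1% formaldehyde, 1 ug/ml Hoechst) was added. Nuclei counted on 4× images gave relative viability as treated counts over vehicle counts, reported as the median of duplicate plates.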

Axitinib + OSI-027 = compound: CNC(=O)c1ccccc1Sc1ccc2c(/C=C/c3ccccn3)n[nH]c2c1 [Axitinib] + COc1cccc2cc(-c3nc([C@H]4CC[C@H](C(=O)O)CC4)n4ncnc(N)c34)[nH]c12 [OSI-027] (partner 0.5 µM)
Procedure, shortened: as §1

Bemcentinib + Pictilisib = compound: Nc1nc(Nc2ccc3c(c2)CC[C@@H](N2CCCC2)CC3)nn1-c1cc2c(nn1)-c1ccccc1CCC2 [Bemcentinib] + CS(=O)(=O)N1CCN(Cc2cc3nc(-c4cccc5[nH]ncc45)nc(N4CCOCC4)c3s2)CC1 [Pictilisib] (partner 1 µM)
Procedure, shortened: as §1

Bemcentinib + Vorinostat = compound: Nc1nc(Nc2ccc3c(c2)CC[C@@H](N2CCCC2)CC3)nn1-c1cc2c(nn1)-c1ccccc1CCC2 [Bemcentinib] + O=C(CCCCCCC(=O)Nc1ccccc1)NO [Vorinostat] (partner 1 µM)
Procedure, shortened: as §1

Row | Cell Line | relative viability ([1]; first compound 1 µM) | relative viability ([1]; first compound 3.162 µM) | relative viability ([1]; first compound 10 µM) | relative viability ([1]; first compound 100 µM) | relative viability (Axitinib + OSI-027; first compound 0.005 µM) | relative viability (Axitinib + OSI-027; first compound 0.01581 µM) | relative viability (Axitinib + OSI-027; first compound 0.05 µM) | relative viability (Axitinib + OSI-027; first compound 0.1581 µM) | relative viability (Axitinib + OSI-027; first compound 0.5 µM) | relative viability (Bemcentinib + Pictilisib; first compound 0.04 µM) | relative viability (Bemcentinib + Pictilisib; first compound 0.1265 µM) | relative viability (Bemcentinib + Pictilisib; first compound 0.4 µM) | relative viability (Bemcentinib + Pictilisib; first compound 1.265 µM) | relative viability (Bemcentinib + Pictilisib; first compound 4 µM) | relative viability (Bemcentinib + Vorinostat; first compound 0.04 µM) | relative viability (Bemcentinib + Vorinostat; first compound 0.1265 µM) | relative viability (Bemcentinib + Vorinostat; first compound 0.4 µM) | relative viability (Bemcentinib + Vorinostat; first compound 1.265 µM) | relative viability (Bemcentinib + Vorinostat; first compound 4 µM) | relative viability ([1]; first compound 31.62 µM)
1 | NCI-H23 | 0.304 | 0.299 | 0.316 | 0.258 | 0.66 | 0.568 | 0.617 | 0.652 | 0.699 | 0.443 | 0.503 | 0.541 | 0.453 | 0.476 | 0.525 | 0.604 | 0.675 | 0.437 | 0.545 | –
2 | NCI-H322M | 0.51 | 0.483 | 0.493 | 0.486 | 0.569 | 0.575 | 0.546 | 0.536 | 0.601 | 0.512 | 0.522 | 0.418 | 0.525 | 0.564 | 0.863 | 0.931 | 0.836 | 0.952 | 0.899 | 0.449
3 | NCI-H358 | 0.112 | 0.0941 | 0.101 | 0.0923 | 0.785 | 0.737 | 0.874 | 0.681 | 1.02 | 0.331 | 0.347 | 0.336 | 0.372 | 0.359 | 0.665 | 0.745 | 0.701 | 0.806 | 0.839 | 0.104
4 | NCI-H441 | 0.483 | 0.652 | 0.401 | 0.451 | 0.736 | 0.604 | 0.681 | 0.541 | 0.748 | 0.572 | 0.53 | 0.575 | 0.509 | 0.399 | 0.691 | 0.824 | 0.735 | 0.87 | 0.756 | –
5 | NCI-H460 | 0.397 | 0.485 | 0.0522 | 0.126 | 0.692 | 0.603 | 0.665 | 0.645 | 0.79 | 0.252 | 0.267 | 0.412 | 0.26 | 0.374 | 0.696 | 0.981 | 1.21 | 0.838 | 0.73 | 0.0525
6 | NCI-H520 | 0.446 | 0.438 | 0.364 | 0.421 | 0.234 | 0.218 | 0.216 | – | 0.24 | 0.289 | 0.309 | 0.316 | 0.288 | 0.406 | 0.678 | 0.902 | 0.83 | 0.626 | 0.761 | –
7 | NCI-H596 | 0.79 | 0.871 | 0.977 | 0.915 | 0.893 | 0.649 | 0.855 | 0.797 | 0.556 | 0.374 | 0.443 | 0.379 | 0.421 | 0.403 | 0.582 | 0.449 | 0.721 | 0.391 | 0.674 | 0.705
8 | NCI-H647 | 0.339 | 0.382 | 0.288 | 0.145 | 0.703 | 0.617 | 0.69 | 0.551 | 0.787 | 0.385 | 0.602 | 0.427 | 0.455 | 0.363 | 0.649 | 0.55 | 0.594 | 0.424 | 0.675 | 0.188
9 | NCI-H661 | 0.359 | 0.354 | 0.358 | 0.346 | 0.741 | 0.754 | 0.721 | 0.617 | 0.855 | 0.318 | 0.449 | 0.422 | 0.357 | 0.369 | 0.774 | 0.778 | 0.849 | 0.789 | 0.838 | 0.355
10 | NCI-H727 | 0.505 | 0.657 | 0.52 | 0.579 | 0.785 | 0.425 | 0.54 | 0.528 | 0.699 | 0.221 | 0.358 | 0.413 | 0.41 | 0.456 | 1.02 | 1.14 | 1.18 | 0.858 | 1.2 | –
11 | NCI-H838 | 0.265 | 0.24 | 0.237 | 0.208 | 0.5 | 0.361 | 0.436 | 0.38 | 0.493 | 0.441 | 0.442 | 0.639 | 0.485 | 0.459 | 0.746 | 0.799 | 0.718 | 0.82 | 0.719 | 0.222
12 | NCI-H1355 | 0.471 | 0.389 | 0.328 | 0.294 | 0.42 | 0.384 | 0.492 | 0.432 | 0.492 | 0.405 | 0.389 | 0.452 | 0.444 | 0.458 | 0.596 | 0.617 | 0.701 | 0.65 | 0.687 | 0.302
13 | NCI-H1395 | 0.642 | 0.755 | 0.657 | 0.688 | 0.595 | 0.595 | 0.736 | 0.581 | 0.633 | 0.787 | 0.619 | 0.83 | 0.612 | 0.674 | – | 0.681 | 0.674 | 0.716 | 0.634 | 0.627
14 | NCI-H1437 | 0.502 | 0.478 | 0.403 | 0.409 | 0.905 | 0.832 | 0.872 | 0.846 | 0.847 | 0.457 | 0.479 | 0.418 | 0.409 | 0.448 | 0.857 | 0.914 | 0.97 | 0.955 | 0.889 | 0.364
15 | NCI-H1650 | – | 0.346 | 0.22 | 0.31 | 0.706 | 0.513 | 0.721 | 0.64 | 1.01 | 0.526 | 0.519 | 0.548 | 0.631 | 0.731 | 0.515 | 0.713 | 0.753 | 0.576 | 0.553 | 0.261
16 | NCI-H1651 | 0.678 | 0.592 | 0.403 | 0.384 | 0.73 | 0.683 | 0.725 | 0.601 | 0.674 | 0.622 | 0.678 | 0.64 | 0.451 | 0.739 | 0.532 | 0.557 | 0.569 | 0.476 | 0.613 | 0.33
17 | NCI-H1666 | 0.606 | 0.596 | 0.474 | 0.515 | 1.01 | 0.86 | 0.88 | 0.825 | 0.855 | 0.313 | 0.596 | 0.427 | 0.43 | 0.55 | 1.02 | 1.24 | 1.07 | 1 | 0.998 | 0.507
18 | NCI-H1734 | 0.28 | 0.259 | 0.238 | 0.245 | 0.586 | 0.57 | 0.656 | 0.623 | 0.644 | 0.461 | 0.487 | 0.486 | 0.48 | 0.45 | 0.788 | 0.773 | 0.853 | 0.833 | 0.828 | 0.262
19 | NCI-H1755 | 0.67 | 0.449 | 0.492 | 0.54 | 0.772 | 0.783 | 0.724 | 0.674 | 0.894 | 0.331 | 0.459 | 0.496 | 0.485 | 0.443 | 0.783 | 0.808 | 0.754 | 0.823 | 0.923 | 0.424
20 | NCI-H1793 | – | 0.272 | 0.277 | 0.218 | 0.348 | 0.198 | 0.349 | 0.289 | 0.312 | 0.414 | 0.38 | 0.454 | 0.395 | 0.361 | 0.63 | 1.15 | 0.74 | 0.461 | 0.699 | 0.276
21 | NCI-H1915 | 0.454 | 0.465 | – | 0.399 | 0.615 | 0.653 | 0.65 | 0.64 | 0.756 | 0.893 | 1.04 | 0.975 | 0.962 | 0.943 | 0.508 | 0.518 | 0.547 | 0.55 | 0.491 | –
22 | NCI-H1944 | 0.236 | 0.225 | 0.23 | 0.19 | 0.389 | 0.404 | 0.42 | 0.424 | 0.392 | 0.356 | 0.342 | 0.371 | 0.357 | 0.343 | 0.521 | 0.611 | 0.608 | 0.527 | 0.561 | 0.191
23 | NCI-H1975 | 0.592 | 0.431 | 0.181 | 0.203 | 0.813 | 0.744 | 0.714 | 0.673 | 0.711 | 0.279 | 0.291 | 0.301 | 0.28 | 0.277 | 0.709 | 0.805 | 0.776 | 0.808 | 0.777 | 0.141
24 | NCI-H1993 | 0.586 | 0.636 | 0.573 | 0.559 | 0.549 | 0.573 | 0.582 | 0.481 | 0.484 | 0.833 | 0.853 | 0.834 | 0.904 | 0.777 | 0.739 | 0.716 | 1.07 | 0.981 | 1.05 | 0.529
25 | NCI-H2009 | 0.822 | 0.755 | 0.693 | 0.495 | 0.699 | 0.684 | 0.646 | 0.697 | 0.887 | 0.753 | 0.928 | 0.855 | 0.914 | 0.888 | 0.671 | 0.783 | 0.71 | 0.723 | 0.722 | 0.413
26 | NCI-H2023 | 0.247 | 0.177 | 0.209 | 0.167 | 0.437 | 0.446 | 0.396 | 0.337 | 0.468 | 0.205 | 0.261 | 0.239 | 0.276 | 0.248 | 0.77 | 0.783 | 0.619 | 0.748 | 0.66 | –
27 | NCI-H2085 | 0.828 | 0.467 | 0.427 | 0.489 | 0.827 | 0.691 | 0.857 | 0.77 | 0.66 | 0.44 | 0.468 | 0.418 | 0.459 | 0.451 | 0.762 | 0.822 | 0.778 | 0.795 | 0.764 | 0.478
